Values quoted from earlier work, collected in patent US20180295833A1, “METHOD FOR SUPPRESSION OF OR PROTECTION FROM ISCHEMIA/REPERFUSION INJURY OF ORGANS FOR TRANSPLANTATION” (MiZ Company Limited, priority 2017, published 2018).

Conditions: normal temperature and normal pressure of 15° C. to 25° C. and 1 atm

saturation concentration of molecular hydrogen: 1.6 ppm
SMILES: [HH] [molecular hydrogen]
